Measurements published in PubChem BioAssay AID1996.
Values after ≈ are worked out from the molar mass of the structure shown.

Details: buffer; pH 7.4; 200.0 µM

Compared with `CCOc1ccc(CNCc2ccccc2Cl)cc1.Cl`, `COc1cccc(NC(=O)NCc2ccccc2Cl)c1` is 32-fold lower in solubility kinetic: 31.6 µg/mL for the first, 1 µg/mL (≈ 3.44 µM) for the second.

Compared with `Cc1ccc(C(CC(=O)NCCCN(C)C)c2ccc(OC(C)C)cc2)cc1` (configuration not stated), `CCC(C(=O)NCCc1c[nH]c2ccc(C)cc12)c1ccccc1` (configuration not stated) is 2-fold lower in solubility kinetic: 52.9 µg/mL (≈ 138 µM) for the first, 26.4 µg/mL (≈ 82.4 µM) for the second.

Compared with `CCCN(C(=O)c1cn(C)c(=O)c2ccccc12)c1ccccc1C`, `O=C(NCCc1ccccc1F)C1CC(=O)N(c2ccccc2)C1` (configuration not stated) is lower in solubility kinetic: over 50.2 µg/mL for the first, 47.8 µg/mL (≈ 146 µM) for the second.

First: Cc1ccc2sc(N(CCN(C)C)C(=O)/C=C/c3cccs3)nc2c1C.Cl
Second: O=C(/C=C/c1ccc(Br)o1)Nc1nccs1
The solubility kinetic of the first is lower: under 0.3 µg/mL for the first, 4.3 µg/mL (≈ 14.4 µM) for the second.

First: Oc1c(CN2CCCC(C(F)(F)F)C2)cc(Cl)c2ccccc12 (configuration not stated)
Second: O=C(Nc1sc2c(c1C(=O)O)CCC2)c1ccccc1Cl
The solubility kinetic of the first is 10-fold lower: 4.1 µg/mL (≈ 11.9 µM) for the first, 41.1 µg/mL (≈ 128 µM) for the second.

Compared with `COCCCNS(=O)(=O)c1cc2c3c(c1)C(C)C(=O)N3CCC2` (configuration not stated), `CCNc1ccc(S(=O)(=O)NCCN(C)C)cc1[N+](=O)[O-]` is lower in solubility kinetic: over 50.8 µg/mL for the first, 42.4 µg/mL (≈ 134 µM) for the second.

`COC(=O)c1c(N)sc2c1CC(C)(C)OC2` and `Cc1nc(N)sc1C(=O)OCC(C)C` cannot be ordered by solubility kinetic: over 36.2 µg/mL for the first, over 32.1 µg/mL for the second.

First: Cc1ccc(S(=O)(=O)N2CC(C)C(=O)CC2C)cc1 (configuration not stated)
Second: COC(=O)c1ccc(C2NC(=O)CCC2[N+](=O)[O-])cc1 (configuration not stated)
The solubility kinetic of the first is lower: 38.6 µg/mL (≈ 137 µM) for the first, over 41.7 µg/mL for the second.

First: Cc1ccc(NC(=O)c2ccccc2F)c(NC(=O)c2ccccc2F)c1
Second: COc1cccc(C(=O)Nc2cccc3ccccc23)c1
The solubility kinetic of the first is 4.3-fold higher: 6.4 µg/mL (≈ 17.5 µM) for the first, 1.5 µg/mL (≈ 5.41 µM) for the second.

`Cc1ccc(NC(=O)N[C@H](C(=O)O)C(C)C)c(C)c1` and `CC(=O)c1sc(C(C)(C)C)cc1NC(=O)/C=C/C(=O)O` cannot be ordered by solubility kinetic: over 39.6 µg/mL for the first, 40 µg/mL (≈ 135 µM) for the second.

First: Cc1cc(C(=O)COc2cc(F)ccc2[N+](=O)[O-])c(C)n1CC1CCCO1 (configuration not stated)
Second: COc1cccc(-c2cc(C(=O)NCC3CCCO3)on2)c1 (configuration not stated)
The solubility kinetic of the first is lower: 34.4 µg/mL (≈ 91.4 µM) for the first, over 45.3 µg/mL for the second.

`Cl.NC1(C(=O)O)CC1` and `Cc1nc(C)c(C(=O)O)s1` cannot be ordered by solubility kinetic: over 20.6 µg/mL for the first, over 23.6 µg/mL for the second.

First: Brc1ccc(OCCCCN2CCCCC2)cc1
Second: Cc1cc(=O)oc2cc(OCCSCCN3CCCC3)ccc12
The solubility kinetic of the first is lower: 40.7 µg/mL (≈ 130 µM) for the first, over 50 µg/mL for the second.

First: CCOc1ccc(-n2ccnc(SCC(=O)NC3CCCC3)c2=O)cc1
Second: Cc1cc(NC(=O)CSc2ncccc2C(=O)O)no1
The solubility kinetic of the first is lower: 32.6 µg/mL (≈ 87.3 µM) for the first, over 44 µg/mL for the second.

Going from `O=C(COC(=O)CCC(=O)c1cccs1)Nc1ccc(F)c(F)c1F` to `COc1ccc(CNC(=O)COC(=O)c2cccs2)cc1`, the solubility kinetic rises from 8.1 µg/mL (≈ 21.8 µM) to 29.1 µg/mL (≈ 95.3 µM) (3.6-fold).

Going from `OC(CNCc1ccc2c(c1)OCO2)COc1ccc(F)cc1` (configuration not stated) to `O=C(Nc1ccc2c(c1)OCCO2)C1CC(c2ccc(F)cc2)=NO1` (configuration not stated), the solubility kinetic falls from over 47.9 µg/mL to 1.2 µg/mL (≈ 3.51 µM).

`C#CCOc1ccccc1/C=C1/C(=O)ON=C1C` and `Cc1cccc(NC(=O)CCc2ccccc2)c1` are within 1.5-fold of each other in solubility kinetic: 34.9 µg/mL (≈ 145 µM) for the first, 35 µg/mL (≈ 146 µM) for the second.

`O=C(COC(=O)Cc1ccc(Cl)cc1Cl)NC1CC1` and `COC(=O)CC1C(=O)NCCN1C(=O)c1ccc(Cl)cc1` (configuration not stated) cannot be ordered by solubility kinetic: over 45.3 µg/mL for the first, over 46.6 µg/mL for the second.

First: O=C(NC(=S)Nc1ccc2c(c1)OCCO2)c1ccco1
Second: O=C(CS(=O)(=O)Cc1ccccc1)Nc1ccc2c(c1)OCO2
The solubility kinetic of the first is 2.6-fold higher: 40.3 µg/mL (≈ 132 µM) for the first, 15.7 µg/mL (≈ 47.1 µM) for the second.

Compared with `O=C(Cc1ccc([N+](=O)[O-])cc1)N1CCN(c2ccc([N+](=O)[O-])cc2)CC1`, `Cc1cccc(N2CCN(C(=O)c3ccc(NC(=O)CC4SC(N5CCCC5)=NC4=O)cc3)CC2)c1C` (configuration not stated) is 5.8-fold higher in solubility kinetic: 5.2 µg/mL (≈ 14 µM) for the first, 30.3 µg/mL (≈ 58.3 µM) for the second.

Going from `CCOc1cc(N2CCOCC2)c(OCC)cc1NC(=O)COC(=O)c1ccc([N+](=O)[O-])o1` to `COc1cc(CN2CCC(CO)(CCOc3ccccc3)CC2)cc(OC)c1`, the solubility kinetic falls from over 69.5 µg/mL to 52.2 µg/mL (≈ 135 µM).

Compared with `NC(=O)C1CCN(C(=O)C2CC(=O)N(c3ccc(F)cc3)C2)CC1` (configuration not stated), `O=C(NCCN1CCCCC1)Nc1ccc(F)cc1F` is higher in solubility kinetic: 26.5 µg/mL (≈ 79.5 µM) for the first, over 42.5 µg/mL for the second.

Going from `COc1ccc(-c2noc(-c3ccoc3C)n2)cc1OC` to `CC1CN(C)CCC1OC(=O)c1ccccc1.Cl` (configuration not stated), the solubility kinetic rises from 0.8 µg/mL (≈ 2.79 µM) to over 40.5 µg/mL.

For `O=S(=O)(c1ccccc1)N(Cc1ccccn1)Cc1ccccn1`, the solubility kinetic was over 50.9 µg/mL.
